Measured values taken from PubChem BioAssay (NCI).
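Values below derive from 48-hour exposures of cells grown in 96-well plates, with endpoints linearly interpolated between the two concentrations bracketing the appropriate inhibition level. TGI: total growth inhibition.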

Tests used:
Test in all cases: NCI tumour cell line growth inhibition, 48 h
786-0 renal = tested on: 786-0 renal
CCRF-CEM leukemia = tested on: CCRF-CEM leukemia
HCT-15 colon = tested on: HCT-15 colon
K-562 leukemia = tested on: K-562 leukemia
MCF7 breast = tested on: MCF7 breast
NCI-H460 lung = tested on: NCI-H460 lung
RPMI-8226 leukemia = tested on: RPMI-8226 leukemia
SF-295 CNS = tested on: SF-295 CNS
SNB-75 CNS = tested on: SNB-75 CNS
NCI-H226 lung = tested on: NCI-H226 lung

Nc1[nH]nc2nc3ccc(C(F)(F)F)cc3nc12
TGI (786-0 renal): 60.7 µM | TGI (CCRF-CEM leukemia): 37.9 µM | TGI (HCT-15 colon): > 100 µM | TGI (K-562 leukemia): > 100 µM | TGI (MCF7 breast): 31.1 µM | TGI (NCI-H460 lung): 52.9 µM | TGI (RPMI-8226 leukemia): > 100 µM | TGI (SF-295 CNS): 97.3 µM | TGI (SNB-75 CNS): 41.3 µM

O=C1NC2OC(C(O)CO)C(O)C2O1 (centres undefined)
TGI (786-0 renal): > 100 µM | TGI (CCRF-CEM leukemia): > 100 µM | TGI (HCT-15 colon): > 100 µM | TGI (K-562 leukemia): > 100 µM | TGI (NCI-H460 lung): > 100 µM | TGI (SF-295 CNS): > 100 µM | TGI (SNB-75 CNS): > 100 µM

COc1ccc(/C=C2\N=C(SC)NC2=O)cc1
TGI (786-0 renal): > 100 µM | TGI (CCRF-CEM leukemia): > 100 µM | TGI (HCT-15 colon): > 100 µM | TGI (MCF7 breast): > 100 µM | TGI (NCI-H226 lung): > 100 µM | TGI (RPMI-8226 leukemia): > 100 µM | TGI (SF-295 CNS): > 100 µM | TGI (SNB-75 CNS): > 100 µM

O=C(CN(c1ccccc1)c1ccccc1)n1nnc2ccccc21
TGI (786-0 renal): > 100 µM | TGI (CCRF-CEM leukemia): > 100 µM | TGI (HCT-15 colon): > 100 µM | TGI (K-562 leukemia): > 100 µM | TGI (NCI-H226 lung): > 100 µM | TGI (NCI-H460 lung): > 100 µM | TGI (RPMI-8226 leukemia): > 100 µM | TGI (SF-295 CNS): > 100 µM | TGI (SNB-75 CNS): > 100 µM

OCc1ccc(C2CC(c3ccco3)=NN2c2ccccc2)o1 (centres undefined)
TGI (786-0 renal): > 100 µM | TGI (CCRF-CEM leukemia): > 100 µM | TGI (HCT-15 colon): > 100 µM | TGI (K-562 leukemia): > 100 µM | TGI (NCI-H226 lung): > 100 µM | TGI (NCI-H460 lung): > 100 µM | TGI (RPMI-8226 leukemia): > 100 µM | TGI (SF-295 CNS): > 100 µM | TGI (SNB-75 CNS): > 100 µM

C=C1C(=O)C=C[C@]2(C)CC[C@H]3C(=C)C(=O)O[C@@H]3[C@@H]12
TGI (786-0 renal): 3.28 µM | TGI (CCRF-CEM leukemia): > 100 µM | TGI (HCT-15 colon): 13.8 µM | TGI (K-562 leukemia): 4.24 µM | TGI (MCF7 breast): 13.3 µM | TGI (NCI-H460 lung): 33.1 µM | TGI (RPMI-8226 leukemia): 5.87 µM | TGI (SF-295 CNS): 30.6 µM

COc1cc2c3c(c1OC)C1(C=CC(=O)C=C1)C[C@H]3N(C)CC2
TGI (786-0 renal): > 100 µM | TGI (HCT-15 colon): > 100 µM | TGI (NCI-H226 lung): > 100 µM | TGI (NCI-H460 lung): > 100 µM | TGI (RPMI-8226 leukemia): > 100 µM | TGI (SF-295 CNS): > 100 µM | TGI (SNB-75 CNS): > 100 µM

CC1CCCC(CC(=O)O)(CC(=O)O)C1 (centres undefined)
TGI (786-0 renal): > 100 µM | TGI (CCRF-CEM leukemia): > 100 µM | TGI (HCT-15 colon): > 100 µM | TGI (K-562 leukemia): > 100 µM | TGI (MCF7 breast): > 100 µM | TGI (NCI-H226 lung): > 100 µM | TGI (NCI-H460 lung): > 100 µM | TGI (RPMI-8226 leukemia): > 100 µM

COc1c(C(C)C)cc2c3c1OC(=O)[C@@]31CCCC(C)(C)C1CC2 (some centres undefined)
TGI (786-0 renal): > 100 µM | TGI (CCRF-CEM leukemia): 59.7 µM | TGI (HCT-15 colon): > 100 µM | TGI (K-562 leukemia): > 100 µM | TGI (NCI-H226 lung): 44.4 µM | TGI (NCI-H460 lung): > 100 µM | TGI (RPMI-8226 leukemia): 59.8 µM | TGI (SF-295 CNS): 78.7 µM | TGI (SNB-75 CNS): 55.7 µM

CC(C)(C)C(=O)CC1=Nc2ccccc2SC1(O)CC(=O)C(C)(C)C (centres undefined)
TGI (786-0 renal): 68.3 µM | TGI (CCRF-CEM leukemia): 32.2 µM | TGI (HCT-15 colon): 52.8 µM | TGI (K-562 leukemia): 97.1 µM | TGI (MCF7 breast): 61.2 µM | TGI (NCI-H226 lung): 40.3 µM | TGI (NCI-H460 lung): 38.5 µM | TGI (RPMI-8226 leukemia): 25.7 µM | TGI (SF-295 CNS): 68.6 µM

CN1[C@@H]2C[C@@H](OC(=O)[C@H](CO)c3ccccc3)C[C@H]1[C@@H]1O[C@@H]12
TGI (786-0 renal): > 100 µM | TGI (CCRF-CEM leukemia): > 100 µM | TGI (HCT-15 colon): > 100 µM | TGI (K-562 leukemia): > 100 µM | TGI (MCF7 breast): > 100 µM | TGI (NCI-H226 lung): > 100 µM | TGI (RPMI-8226 leukemia): > 100 µM

C=C([C@@]1(O)C[C@H]2[C@H](CCC2(OC)OC)[C@@H]2c3ccccc3O[C@@H]21)[Si](C)(C)C
TGI (786-0 renal): > 100 µM | TGI (HCT-15 colon): > 100 µM | TGI (K-562 leukemia): > 100 µM | TGI (MCF7 breast): > 100 µM | TGI (NCI-H226 lung): > 100 µM | TGI (NCI-H460 lung): > 100 µM | TGI (RPMI-8226 leukemia): > 100 µM | TGI (SF-295 CNS): > 100 µM | TGI (SNB-75 CNS): > 100 µM

CSc1sc2ccccc2[s+]1
TGI (786-0 renal): > 100 µM | TGI (CCRF-CEM leukemia): > 100 µM | TGI (HCT-15 colon): > 100 µM | TGI (K-562 leukemia): > 100 µM | TGI (NCI-H226 lung): > 100 µM | TGI (NCI-H460 lung): > 100 µM | TGI (RPMI-8226 leukemia): > 100 µM | TGI (SF-295 CNS): > 100 µM | TGI (SNB-75 CNS): > 100 µM

O=C(O)/C=c1/c2ccccc2n2nc3ccccc3c12
TGI (786-0 renal): > 100 µM | TGI (CCRF-CEM leukemia): 99.6 µM | TGI (HCT-15 colon): > 100 µM | TGI (K-562 leukemia): > 100 µM | TGI (MCF7 breast): > 100 µM | TGI (NCI-H460 lung): > 100 µM | TGI (RPMI-8226 leukemia): 70.1 µM | TGI (SF-295 CNS): > 100 µM

O=C1O[C@H](c2ccc3c(c2)OCO3)[C@H]2CO[C@@H](c3ccc4c(c3)OCO4)[C@@H]12
TGI (786-0 renal): > 100 µM | TGI (HCT-15 colon): > 100 µM | TGI (K-562 leukemia): > 100 µM | TGI (MCF7 breast): > 100 µM | TGI (NCI-H226 lung): > 100 µM | TGI (NCI-H460 lung): > 100 µM | TGI (RPMI-8226 leukemia): > 100 µM | TGI (SF-295 CNS): > 100 µM

Cn1c(COC(=O)Nc2ccccc2)c(COC(=O)Nc2ccccc2)c2ccc3cc(Cl)c(Cl)cc3c21
TGI (786-0 renal): 12.6 µM | TGI (CCRF-CEM leukemia): > 75 µM | TGI (HCT-15 colon): 15 µM | TGI (K-562 leukemia): > 75 µM | TGI (MCF7 breast): 10.6 µM | TGI (NCI-H226 lung): 54.7 µM | TGI (NCI-H460 lung): 22.9 µM | TGI (SF-295 CNS): 64.2 µM | TGI (SNB-75 CNS): 19.2 µM

COc1cc(OC)c(C2c3cc4c(cc3OC(N3CCCC3)C2C)OCO4)c(OC)c1 (centres undefined)
TGI (786-0 renal): 53.8 µM | TGI (CCRF-CEM leukemia): 45.5 µM | TGI (HCT-15 colon): 52.3 µM | TGI (K-562 leukemia): 58.2 µM | TGI (MCF7 breast): 48.1 µM | TGI (NCI-H460 lung): 32.5 µM | TGI (RPMI-8226 leukemia): 43.1 µM | TGI (SF-295 CNS): 36.1 µM

O=C1c2ccccc2C2(c3ccc(Cl)cc3)N[C@H]3CCCC[C@@H]3N12 (some centres undefined)
TGI (786-0 renal): > 100 µM | TGI (CCRF-CEM leukemia): > 100 µM | TGI (HCT-15 colon): > 100 µM | TGI (K-562 leukemia): > 100 µM | TGI (NCI-H226 lung): > 100 µM | TGI (RPMI-8226 leukemia): > 100 µM | TGI (SF-295 CNS): > 100 µM | TGI (SNB-75 CNS): > 100 µM
